Assay results as given in patent US6610535B1, “Progenitor cells and methods and uses related thereto” (ES Cell International Pte Ltd., priority 2000, dated 2003).
“Also recorded” adds a separate entry of the source. Where two headings read alike, the source gives them in different places. Where no end group is shown, it is not given here.

Columns and labels:
Format in all cases: cell-based, rat
NACs = assay: Calcium imaging (Fluo-3) of glucose-induced calcium current in NACs; settings: Fluo-3, confocal microscopy
Protocol: Cells were then washed to remove excess dye and placed onto a heated microscope stage (Olympus) and maintained at 32° C. Fluo-3 fluorescence intensity was used as an indicator of intracellular calcium concentration and was measured with a confocal laser-scanning microscope (Olympus). The excitation wavelength was set to 488 nm (argon ion laser) and a 40×water lens was used. The same parameters for laser scanning were set for each experiment, including confocal aperture and laser intensity. The laser scanning was performed as an XYT series with an interval of 10 seconds between each scan in order to resolve glucose-induced changes in intracellular calcium. The imaging files were stored and subsequently analyzed with FLUOVIEW software (Olympus). Cells of interest were circled and the mean intensity of the circled areas was plotted over time.

duct monolayer = assay: Induction of non-adherent cells (NACs, floating progenitor cells) from confluent pancreatic duct monolayer culture
duct spheres = assay: Duct sphere differentiation after growth with added factors, immunohistochemistry; settings: LIF in growth culture medium in addition to six growth factors
Protocol: Ducts are dissociated into single cells by the dissociation enzyme cocktail containing 1.33 mg/ml Trypsin, 0.7 mg/ml Hyaluronidase, 0.2 mg/ml Kynerenic Acid, and 200 U/ml DNase and plated into sphere culture media (culture media containing 10 ng/ml bFGF, 20 ng/ml EGF, 40 ng/ml HGF, 8 ng/ml TGF α, 30 ng/ml IGF-I and IGF-II, 2% B27 supplements (Gibco/BRL), 8 mM HEMES, 2 mM Glutamine, 100 U/ml penicillin and 100 ug/ml streptomycin in DMEM-F12 medium). After two days in culture, the primary spheres were taken onto HTB-9 matrix in the differentiation media (5% FBS in Iscove Media containing 200 ng/ml PYY and 30 uM Forskolin) for 4 days differentiation. The cells are fixed by 1% PFA followed by IHC analysis.

duct cultures = assay: Immunostaining for insulin in duct cultures; settings: FIG. 12; 48 hours in varying secretin doses
[1] = factor added to day 5 duct monolayer, 48 hours

O=CC[C@@H](O)[C@H](O)[C@H](O)CO [2-deoxyglucose]
effect on calcium current in NACs (NACs): not induced

CCCC(=O)Nc1ncnc2c1ncn2[C@@H]1O[C@@H]2COP(=O)(O)O[C@H]2[C@H]1OC(=O)CCC [Dibutyrl cAMP, dibutyryl-cAMP, reference compound]
induction of differentiation of duct monolayer (duct monolayer; duct monolayer culture): found to induce differentiation | effect on NAC / floating progenitor cell generation (duct monolayer; [1]): can substitute for DCE

O=C(O)CN(CCOCCOCCN(CC(=O)O)CC(=O)O)CC(=O)O [EGTA]
effect on calcium current in NACs (NACs): inhibited

CCCC(=O)[O-].[Na+] [Na-Butyrate, sodium butyrate, reference compound]
effect on NAC / floating progenitor cell generation (duct monolayer): can substitute for DCE | induction of differentiation of duct monolayer (duct monolayer): found to induce differentiation

CC1=NS(=O)(=O)c2cc(Cl)ccc2N1 [diazoxide]
effect on calcium current in NACs (NACs): completely inhibited

CCCCNC(=O)NS(=O)(=O)c1ccc(C)cc1 [tolbutamide]
effect on calcium current in NACs (NACs): activated; also recorded: stimulated a calcium current

Cholera toxin [reference compound]
effect on NAC / floating progenitor cell generation (duct monolayer): majority of the activity | induction of differentiation of duct monolayer (duct monolayer): found to induce differentiation

EGF: epidermal growth factor (NSDSECPLSHDGYCLHDGVCMYIEALDKYACNCVVGYIGERCQYRDLKWWELR; UniProt P01133 971-1023, looked up)
effect on NAC / floating progenitor cell generation (duct monolayer; [1]): neither dexamethasone nor EGF alone had significant effects

HGF: hepatocyte growth factor
effect on NAC / floating progenitor cell generation (duct monolayer; [1]): only slight effects

LIF: leukemia inhibitory factor
insulin positive cells upon differentiation (duct spheres): many fewer | relative amount of Somatostatin positive cells upon differentiation (duct spheres): greatly increased

TGFβ1: growth factor TGFβ1
effect on NAC / floating progenitor cell generation (duct monolayer; [1]): only slight effects

VIP: Vasoactive Intestinal Peptide (HSDAVFTDNYTRLRKQMAVKKYLNSILN-NH2; ends and bridges not checked; UniProt P01282 125-152, looked up)
increase in number of floating progenitor cells versus control (duct monolayer; FIG. 13, 50 ng/ml, 48 hours, control 5% FCS): > 3 fold | optimal dosage for induction of floating progenitor cells (duct monolayer; FIG. 13, 48 hours of treatment): 50 ng/mL | effect on NAC / floating progenitor cell generation (duct monolayer; [1]): inducing the appearance of floating progenitor cells

forskolin [reference compound]
effect on NAC / floating progenitor cell generation (duct monolayer): can substitute for DCE | induction of differentiation of duct monolayer (duct monolayer): found to induce differentiation

insulin: hormone insulin added to culture
effect on secretin-induced induction of floating progenitor cells (duct monolayer; FIG. 14, insulin 10 ng/ml added simultaneously with secretin 100 nM): diminished

secretin: secretin
induction of differentiation of duct monolayer (duct monolayer; duct monolayer culture): can induce differentiation | effect on NAC / floating progenitor cell generation (duct monolayer; [1]): dose dependent increase | number of insulin positive cells in the monolayer (duct cultures): increases with secretin dose
